Where only a bound is given, the exact number is not on record here.

Sequence of Norwalk GGI.1 Norovirus protease (Q83883 1101-1281): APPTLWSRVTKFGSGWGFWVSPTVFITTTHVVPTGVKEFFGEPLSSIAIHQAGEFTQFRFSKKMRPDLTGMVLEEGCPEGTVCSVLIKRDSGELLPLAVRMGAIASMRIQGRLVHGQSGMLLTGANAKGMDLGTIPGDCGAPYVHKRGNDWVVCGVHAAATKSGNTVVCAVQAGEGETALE
Sequence of HuNV GGII.4 Norovirus protease (P54634 1009-1189): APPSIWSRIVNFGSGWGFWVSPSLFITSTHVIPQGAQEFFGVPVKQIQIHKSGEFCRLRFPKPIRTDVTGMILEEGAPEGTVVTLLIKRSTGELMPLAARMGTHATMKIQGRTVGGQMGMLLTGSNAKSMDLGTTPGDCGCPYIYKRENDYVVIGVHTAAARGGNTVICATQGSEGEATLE

The target in the first assay is SARS2 protease (Severe acute respiratory syndrome coronavirus 2, UniProt P0DTD1). Description: SARS-CoV-2 protease inhibition assay (SARS2 FRET protease assay). The assay is classed as biochemical. The conditions noted are these: Table E; SARS-CoV-2 protease inhibition; read-out: IC50. As to the method: (§1) Viral protease assays: The antiviral activities of inhibitors were determined by FRET (Fluorescence Resonance Energy Transfer) assay. Purified viral protease was incubated with the protease substrate peptide (Edans-DFHLQ/GP-Dabcyl) and inhibitor, and IC50 values were subsequently determined by the fluorescence signals.
The SARS2 FRET protease assay was performed in 20 mM HEPES-Na pH 7, 120 mM NaCl, 0.4 mM EDTA, 0.01% Triton, 5% glycerol, and 4 mM DTT. A self-quenching peptide substrate 5-FAM-TSA VLQ SGF RKK (5TAMRA)-NH2 was custom synthesized by Anaspec. Compounds were diluted in 3-fold serial dilutions to final concentrations of 20 μM to 1.0 nM. SARS2 protease was added to a final concentration of 25 nM, depending on the enzyme activity level, and the peptide substrate was added to a final concentration of 1.3 μM. The assay was incubated 30 minutes at 30° C. and read in a Perkin Elmer Envision with excitation at 473 nm and emission measurement at 519 nm.
The IC50 is the concentration at which inhibition is half-maximal. Turning to `CCCC1CCCC/C=C/CC2CC(NC(=O)[C@H](CC(C)C)NC1=O)C(O)(C(=O)NC(C)C)N(C)C2=O` (stereo partly drawn) [Compound B26, (4S,E)-18-hydroxy-4-isobutyl-N-isopropyl-17-methyl-3,6,16-trioxo-7-propyl-2,5,17-triazabicyclo[13.3.1]nonadec-12-ene-18-carboxamide], the IC50 is more than 200 µM.

For `CCCCCCCC1CCC/C=C/CC(C(=O)N(C)C)CC(C(=O)N(C)OC)NC(=O)[C@H](CC(C)C)NC(=O)O1` (stereo in doubt) [Compound B13, (4S,7S,E)-16-Heptyl-4-isobutyl-N^7-methoxy-N^7,N^9,N^9-trimethyl-2,5-dioxo-1-oxa-3,6-diazacyclohexadec-11-ene-7,9-dicarboxamide], the IC50 was more than 200 µM. On the same count and under the same terms, the same measure for `CCCCCCCC1CCCC/C=C/CC(C(=O)NC)C[C@@H](CO)NC(=O)[C@H](CC(C)C)NC1=O` (stereo partly drawn) [Compound B66, (2S,5S,E)-15-heptyl-5-(hydroxymethyl)-2-isobutyl-N-methyl-3,16-dioxo-1,4-diazacyclohexadec-9-ene-7-carboxamide]: more than 200 µM; for `CCOP(=O)(OCC)C(O)[C@H](CCC(=O)N1CCCCc2ccccc21)NC(=O)[C@H](CC1CCCCC1)NC(=O)OCc1cccc(Cl)c1` (stereo partly drawn) [Compound A55, 3-Chlorobenzyl ((2S)-3-cyclohexyl-1-(((2S)-1-(diethoxyphosphoryl)-1-hydroxy-5-oxo-5-(2,3,4,5-tetrahydro-1H-benzo[b]azepin-1-yl)pentan-2-yl)amino)-1-oxopropan-2-yl)carbamate]: more than 200 µM. As for `CCCCCCCC1CC/C=C/CC(C(=O)NC)C[C@@H](C(=O)N(C)OC)NC(=O)C(CC(C)C)NC(=O)O1` (single isomer, unassigned) [Compound B35], the IC50 was more than 200 µM.

On to `CN(CCc1ccccc1)C(=O)CC[C@@H](CO)NC(=O)[C@H](CC1CCCCC1)NC(=O)OCc1cccc(Cl)c1` [Compound A26, 3-chlorobenzyl ((S)-3-cyclohexyl-1-(((S)-1-hydroxy-5-(methyl(phenethyl)amino)-5-oxopentan-2-yl)amino)-1-oxopropan-2-yl)carbamate], for which the concentration for half-maximal inhibition (IC50) amounted to 14.7 µM.

Consider `CCOP(=O)(OCC)C(O)[C@H](CCC(=O)N1CCCC(c2ccccc2)C1)NC(=O)[C@H](CC1CCCCC1)NC(=O)OCc1cccc(Cl)c1` (stereo partly drawn) [Compound A106, 3-Chlorobenzyl ((2S)-3-cyclohexyl-1-(((2S)-1-(diethoxyphosphoryl)-1-hydroxy-5-oxo-5-(3-phenylpiperidin-1-yl)pentan-2-yl)amino)-1-oxopropan-2-yl)carbamate], for which the IC50 is more than 200 µM. Same read-out and setting: the same measure for `CCCCCCCC1CC/C=C/CC(C(=O)NC)C[C@@H](C(=O)N(C)OC)NC(=O)C(CC(C)C)NC(=O)O1` (single isomer, unassigned) [Compound B34]: more than 200 µM; for `CC(C)CC1NC(=O)OC(Cc2ccccc2)CC/C=C/CC(C(=O)N(C)C)CC(C=O)NC1=O` (stereo in doubt) [Compound B38, (4S,7S)-15-Benzyl-7-formyl-4-isobutyl-N,N-dimethyl-2,5-dioxo-1-oxa-3,6-diazacyclopentadec-11-ene-9-carboxamide]: 137 µM. The same measure, in the same setting: next, `CCCCCCCCC(=O)N[C@@H](CC(C)C)C(=O)N[C@@H](CCC(=O)NC)CSSC[C@H](CCC(=O)NC)NC(=O)[C@H](CC(C)C)NC(=O)CCCCCCCC` [Compound A111, N,N′-((2S,2'S)-(((2S,2'S)-disulfanediylbis(5-(methylamino)-5-oxopentane-1,2-diyl))bis(azanediyl))bis(4-methyl-1-oxopentane-1,2-diyl))dinonanamide]: more than 200 µM; `CCOP(=O)(OCC)C(O)[C@@H]1CC(C(=O)N(C)C)CCCCCC(Cc2ccccc2)OC(=O)N[C@@H](CC(C)C)C(=O)N1` (stereo partly drawn) [Compound B45, Diethyl (((4S,7S)-15-benzyl-9-(dimethylcarbamoyl)-4-isobutyl-2,5-dioxo-1-oxa-3,6-diazacyclopentadecan-7-yl)(hydroxy)methyl)phosphonate]: more than 200 µM. Same read-out and setting: the same measure for `CCCCCCCCC(=O)N[C@@H](CC(C)C)C1=NC(CCC(=O)NC)CO1` (stereo partly shown) [Compound A112, N-((1 S)-3-methyl-1-(4-(3-(methylamino)-3-oxopropyl)-4,5-dihydrooxazol-2-yl)butyl)nonanamide]: more than 200 µM; for `CC(C)C[C@@H]1NC(=O)OC(Cc2ccccc2)CCCCCC(C(=O)N(C)C)CC(C=O)NC1=O` (stereo in doubt) [Compound B44, (4S,7S)-15-benzyl-7-formyl-4-isobutyl-N,N-dimethyl-2,5-dioxo-1-oxa-3,6-diazacyclopentadecane-9-carboxamide]: 185 µM; for `CCCCCCCC1CC/C=C/CC(C(=O)NC)C[C@@H](C(=O)N(C)OC)NC(=O)C(CC(C)C)NC(=O)O1` (single isomer, unassigned) [Compound B33]: more than 200 µM. `CC(C)C[C@@H]1NC(=O)C(Cc2ccccc2)CCCC/C=C/CC2CC(NC1=O)C(O)N(C)C2=O` (stereo partly drawn) [Compound B21, (4S,E)-7-benzyl-18-hydroxy-4-isobutyl-17-methyl-2,5,17-triazabicyclo[13.3.1]nonadec-12-ene-3,6,16-trione]: the IC50 worked out at 89.8 µM. In the case of `CON(C)C(=O)[C@@H]1CC(C(=O)N(C)C)C/C=C/CCC(Cc2ccccc2)OC(=O)NC(CC(C)C)C(=O)N1` (stereo in doubt) [Compound B31, (4S,7S)-15-Benzyl-4-isobutyl-N7-methoxy-N7,N9,N9-trimethyl-2,5-dioxo-1-oxa-3,6-diazacyclopentadec-11-ene-7,9-dicarboxamide], the IC50 was more than 200 µM. Same read-out and setting: the same measure for `CCN(CCc1ccccc1)C(=O)CC[C@H](NC(=O)[C@H](CC1CCCCC1)NC(=O)OCc1cccc(Cl)c1)C(=O)N(C)OC` (stereo in doubt) [Compound A42, 3-Chlorobenzyl ((S)-3-cyclohexyl-1-(((S)-5-(ethyl(phenethyl)amino)-1-(methoxy(methyl)amino)-1,5-dioxopentan-2-yl)amino)-1-oxopropan-2-yl)carbamate]: more than 200 µM; for `CCCCCCCC1CC/C=C/CC(C(=O)NC)C[C@@H](C(=O)N(C)OC)NC(=O)C(CC(C)C)NC(=O)O1` (single isomer, unassigned) [Compound B36]: more than 200 µM; for `CON(C)C(=O)[C@H](CCC(=O)N(C)C)NC(=O)[C@H](CC1CCCCC1)NC(=O)OCc1cccc(Cl)c1` [Compound A3, 3-Chlorobenzyl ((S)-3-cyclohexyl-1-(((S)-5-(dimethylamino)-1-(methoxy (methyl)amino)-1,5-dioxopentan-2-yl)amino)-1-oxopropan-2-yl)carbamate]: more than 200 µM. On the same count and under the same terms, the same measure for `CCNC(=O)OCCN(C)C(=O)CC[C@H](NC(=O)[C@H](CC1CCCCC1)NC(=O)OCc1cccc(Cl)c1)C(O)P(=O)(OCC)OCC` (stereo partly drawn) [Compound A28, 3-Chlorobenzyl ((12S,15S)-16-cyclohexyl-12-((diethoxyphosphoryl)(hydroxy)methyl)-8-methyl-4,9,14-trioxo-5-oxa-3,8,13-triazahexadecan-15-yl)carbamate]: more than 200 µM; for `CCOCCOCCN(C)C(=O)CC[C@H](NC(=O)[C@H](CC1CCCCC1)NC(=O)OCc1cccc(Cl)c1)C(=O)N(C)OC` [Compound A20, 3-Chlorobenzyl ((13S,16S)-17-cyclohexyl-13-(methoxy(methyl)carbamoyl)-9-methyl-10,15-dioxo-3,6-dioxa-9,14-diazaheptadecan-16-yl)carbamate]: more than 200 µM; for `CCOC(=O)NCCN(C)C(=O)CC[C@H](NC(=O)[C@H](CC1CCCCC1)NC(=O)OCc1cccc(Cl)c1)C(=O)N(C)OC` (stereo in doubt) [Compound A32, 3-Chlorobenzyl ((12S,15S)-16-cyclohexyl-12-(methoxy(methyl)carbamoyl)-8-methyl-4,9,14-trioxo-3-oxa-5,8,13-triazahexadecan-15-yl)carbamate]: more than 200 µM. In the case of `CCOP(=O)(OCC)C(O)[C@H](CCC(=O)N(C)CC(C)c1ccccc1)NC(=O)[C@H](CC1CCCCC1)NC(=O)OCc1cccc(Cl)c1` (stereo partly drawn) [Compound A102, 3-Chlorobenzyl ((2S)-3-cyclohexyl-1-(((2S)-1-(diethoxyphosphoryl)-1-hydroxy-5-(methyl(2-phenylpropyl)amino)-5-oxopentan-2-yl)amino)-1-oxopropan-2-yl)carbamate], the IC50 is more than 200 µM.

Another assay concerns the target Norwalk GGI.1 Norovirus protease (Norovirus, UniProt Q83883). Description: Noro-Norwalk FRET protease assay (Norwalk GGI.1). It counts as biochemical, Norwalk virus. The conditions noted are these: Table C; FRET protease assay; read-out: Norwalk GGI.1 IC50. As to the method:
as §1
The Noro-Norwalk FRET protease assay was performed in 50 mM HEPES-Na pH 8, 50 mM NaCl, 0.4 mM EDTA, 4% glycerol, and 6 mM DTT. A self-quenching peptide substrate [5-FAM]-[…]-[TAMRA] was custom synthesized by Anaspec. Compounds were diluted in 3-fold serial dilutions to final concentrations of 200 μM to 10.2 nM. Noro protease was added to a final concentration of 1-7 μM, depending on the enzyme activity level, and the peptide substrate was added to a final concentration of 10 μM. The assay was incubated 90 minutes at 37° C. and read in a Perkin Elmer Envision with excitation at 473 nm and emission measurement at 519 nm.
Regarding `O=C[C@H](CCC(=O)N1CCc2ccccc2CC1)NC(=O)[C@H](CC1CCCCC1)NC(=O)OCc1cccc(Cl)c1` (stereo in doubt) [Compound A118, 3-Chlorobenzyl ((S)-3-cyclohexyl-1-(((S)-1,5-dioxo-5-(1,2,4,5-tetrahydro-3H-benzo[d]azepin-3-yl)pentan-2-yl)amino)-1-oxopropan-2-yl)carbamate], the IC50 came to 6.6 µM.

Another assay concerns the target HuNV GGII.4 Norovirus protease (Norovirus GII.4 (human norovirus genogroup II genotype 4), UniProt P54634). Description: Norovirus protease FRET assay (HuNV GGII.4). The conditions noted are these: Table C; FRET protease assay; read-out: HuNV GGII.4 IC50. The assay is classed as biochemical.
Regarding `O=C[C@H](CCC(=O)N1CCc2ccccc2CC1)NC(=O)[C@H](CC1CCCCC1)NC(=O)OCc1cccc(Cl)c1` (stereo in doubt) [Compound A118, 3-Chlorobenzyl ((S)-3-cyclohexyl-1-(((S)-1,5-dioxo-5-(1,2,4,5-tetrahydro-3H-benzo[d]azepin-3-yl)pentan-2-yl)amino)-1-oxopropan-2-yl)carbamate], the IC50 was 74.2 µM.

The values above are taken from patent US20230151034A1 (COCRYSTAL PHARMA, INC., priority 2020, published 2023).
